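The compound was tested at five concentrations on cells cultured in 96-well plates, with a 48-hour exposure period. GI50 marks 50% less growth.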 Active and inactive are the calls of the source. Rule as the data show it: active = GI50 up to about 1.1 µM and inactive = higher.

Four molecules from ChEMBL document CHEMBL1201862, “PubChem BioAssay data set” (2004) can be followed below.

What all share (test): DTP human tumour cell line panel, 48 h
In assay [1] the test system is SNB-75.
Assay [2] relates to COLO 205.
In assay [3] the test system is MDA-MB-231.
Assay [4] relates to A549.
Assay [5] relates to SK-MEL-28.
The test system of assay [6] is SNB-19.
Assay [7] deals with Hs-578T.
For assay [8], the system named is HCT-15.
The test system of assay [9] is SF-268.
For assay [10], the system named is OVCAR-3.
In assay [11] the test system is SK-MEL-5.
For assay [12], the system named is HCT-116.
Assay [13] deals with SW-620.
The subject of assay [14] is SF-295.
In assay [15] the test system is Malme-3M.
For assay [16], the system named is MOLT-4.
Assay [17] concerns CAKI-1.
The subject of assay [18] is MCF7.
In assay [19] the test system is EKVX.
In assay [20] the test system is BT-549.

`O=C1Cc2c(-c3ccc(Cl)cc3)cc(-c3ccccc3)nc2-c2ccccc2N1`: the GI50 is 3.82 µM (inactive) in [1]; 2.46 µM (inactive) in [2]; 4.35 µM (inactive) in assay [3]; 5.66 µM (inactive) in assay [4]; 4.67 µM (inactive) in assay [5]; 1.87 µM (inactive) in [6]. The GI50 in [7] was 7.26 µM (inactive); in assay [8], 4.85 µM; in [9] it was 12.1 µM (inactive); in [10], 11.7 µM (inactive); in assay [11], 5.15 µM (inactive); in assay [12], 3.44 µM (inactive). Further, the GI50 in assay [13] was 11 µM (inactive); in assay [14] it was 6.38 µM (inactive); in assay [15], 17 µM (inactive); in assay [16], 9.53 µM (inactive); in assay [17] it was 4.86 µM (inactive); in [18], 9.16 µM (inactive). The GI50 in [19] is 10.5 µM (inactive); in assay [20] it was 21.4 µM (inactive).

`NC(CSCc1ccc(I)cc1)C(=O)O` (stereo not given): the GI50 in [1], in assay [2], in [3], in assay [4], in assay [5] and in assay [6] was > 100 µM (inactive) each time. Besides, the GI50 in assay [7] was 80.7 µM (inactive); in [8] it was more than 100 µM; in assay [9], > 100 µM (inactive); in assay [10], > 100 µM (inactive); in assay [11] it was > 100 µM (inactive); in assay [12], > 100 µM (inactive). Moreover, the GI50 in assay [13], in assay [14], in assay [15], in assay [16], in assay [17] and in [18] was > 100 µM (inactive) each time. Besides, the GI50 in assay [19] and in [20] was > 100 µM (inactive) each time.

Take `O=C(Nc1ccc(N2C(=O)CSC2c2cccs2)cc1)c1ccc(N2C(=O)CSC2c2cccs2)cc1` (stereo not given): the GI50 in assay [1] is > 100 µM (inactive); in assay [2], > 100 µM (inactive); in assay [3], > 100 µM (inactive); in [4] it was 37.2 µM (inactive); in [5], > 100 µM (inactive); in [6], 49 µM (inactive). For the same molecule, the GI50 in [7] is > 100 µM (inactive); in [8], more than 100 µM; in [9] it was > 100 µM (inactive); in [10] it was > 100 µM (inactive); in [11], > 100 µM (inactive); in assay [12], > 100 µM (inactive). For the same molecule, the GI50 in assay [13] was > 100 µM (inactive); in assay [14], 53 µM (inactive); in assay [15], > 100 µM (inactive); in [16], 39.5 µM (inactive); in assay [17], > 100 µM (inactive); in assay [18], 62.1 µM (inactive). The GI50 in assay [19] and in assay [20] was > 100 µM (inactive) each time.

In the case of `Cc1c(/N=C\c2ccc(N(CCC#N)CCC#N)cc2)c(=O)n(-c2ccccc2)n1C`, the GI50 in assay [1] is 20.7 µM (inactive); in assay [2], > 100 µM (inactive); in assay [3], 77.4 µM (inactive); in assay [4], 82.6 µM (inactive); in [5] it was > 100 µM (inactive); in assay [6], 41.8 µM (inactive). Moreover, the GI50 in assay [7] was 38 µM (inactive); in assay [8], more than 100 µM; in [9], 64.6 µM (inactive); in [10] it was > 90.6 µM (inactive); in [11] it was > 100 µM (inactive); in assay [12] it was > 100 µM (inactive). The GI50 in assay [13] is > 100 µM (inactive); in assay [14], 25.7 µM (inactive); in assay [15], > 100 µM (inactive); in [16], > 100 µM (inactive); in assay [17] it was > 100 µM (inactive); in assay [18] it was > 63.7 µM (inactive). Further, the GI50 in assay [19] was > 93.5 µM (inactive); in assay [20], > 100 µM (inactive).

In general, GI50 refers to the concentration giving 50% growth inhibition.
